In one assay the target is T1, ATM (Homo sapiens, UniProt Q13315).
T1 construct: detecting phosphorylation of Chk2 in a human non-small cell lung cancer cell line NCI-H460 (ATCC company); host or cells: NCI-H460 human non-small cell lung cancer cells
Description: ATM inhibition test (phosphorylation of Chk2 generated by ionizing radiation, AlphaScreen SureFire). It counts as cell-based. The following applies: phosphorylated Chk2 in NCI-H460 cells, ionizing radiation 8Gy, 1 hour after test compound treatment; read-out: ATM inhibitory activity. A digest of the protocol:
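Phosphorylated Chk2 read by AlphaScreen SureFire in human non-small cell lung cancer NCI-H460 cells, 1 hour after 8Gy ionizing radiation at 37° C. Compound added 1 hour before irradiation. Percent inhibition normalised between irradiated and non-irradiated drug-untreated signals.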
On the technique in general: Bead proximity is the source of the signal in Alpha formats.

In assay [1] the test system is human non-small cell lung cancer cell line NCI-H460. Description: Cell proliferation inhibition test by sensitivity-enhancing to ionizing radiation (Cell Titer Glo). It counts as cell-based. Particulars: concentration in which SER became 2, NCI-H460 cells, ionizing radiation 2 Gy, cultured 120 hour. In a few lines: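 Radiosensitisation measured as SER, a ratio of Cell Titer Glo luminescence in irradiated vs unirradiated plates relative to DMSO; SER2, the concentration yielding SER 2, came from sigmoidal regression. Compound (0.1% DMSO) was given 24 h post-seeding, 2 Gy applied 30 min later, then 120 hour culture at 37° C.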

pIC50: −log10 of the molar value.

T1 sequence (Q13315 whole entry): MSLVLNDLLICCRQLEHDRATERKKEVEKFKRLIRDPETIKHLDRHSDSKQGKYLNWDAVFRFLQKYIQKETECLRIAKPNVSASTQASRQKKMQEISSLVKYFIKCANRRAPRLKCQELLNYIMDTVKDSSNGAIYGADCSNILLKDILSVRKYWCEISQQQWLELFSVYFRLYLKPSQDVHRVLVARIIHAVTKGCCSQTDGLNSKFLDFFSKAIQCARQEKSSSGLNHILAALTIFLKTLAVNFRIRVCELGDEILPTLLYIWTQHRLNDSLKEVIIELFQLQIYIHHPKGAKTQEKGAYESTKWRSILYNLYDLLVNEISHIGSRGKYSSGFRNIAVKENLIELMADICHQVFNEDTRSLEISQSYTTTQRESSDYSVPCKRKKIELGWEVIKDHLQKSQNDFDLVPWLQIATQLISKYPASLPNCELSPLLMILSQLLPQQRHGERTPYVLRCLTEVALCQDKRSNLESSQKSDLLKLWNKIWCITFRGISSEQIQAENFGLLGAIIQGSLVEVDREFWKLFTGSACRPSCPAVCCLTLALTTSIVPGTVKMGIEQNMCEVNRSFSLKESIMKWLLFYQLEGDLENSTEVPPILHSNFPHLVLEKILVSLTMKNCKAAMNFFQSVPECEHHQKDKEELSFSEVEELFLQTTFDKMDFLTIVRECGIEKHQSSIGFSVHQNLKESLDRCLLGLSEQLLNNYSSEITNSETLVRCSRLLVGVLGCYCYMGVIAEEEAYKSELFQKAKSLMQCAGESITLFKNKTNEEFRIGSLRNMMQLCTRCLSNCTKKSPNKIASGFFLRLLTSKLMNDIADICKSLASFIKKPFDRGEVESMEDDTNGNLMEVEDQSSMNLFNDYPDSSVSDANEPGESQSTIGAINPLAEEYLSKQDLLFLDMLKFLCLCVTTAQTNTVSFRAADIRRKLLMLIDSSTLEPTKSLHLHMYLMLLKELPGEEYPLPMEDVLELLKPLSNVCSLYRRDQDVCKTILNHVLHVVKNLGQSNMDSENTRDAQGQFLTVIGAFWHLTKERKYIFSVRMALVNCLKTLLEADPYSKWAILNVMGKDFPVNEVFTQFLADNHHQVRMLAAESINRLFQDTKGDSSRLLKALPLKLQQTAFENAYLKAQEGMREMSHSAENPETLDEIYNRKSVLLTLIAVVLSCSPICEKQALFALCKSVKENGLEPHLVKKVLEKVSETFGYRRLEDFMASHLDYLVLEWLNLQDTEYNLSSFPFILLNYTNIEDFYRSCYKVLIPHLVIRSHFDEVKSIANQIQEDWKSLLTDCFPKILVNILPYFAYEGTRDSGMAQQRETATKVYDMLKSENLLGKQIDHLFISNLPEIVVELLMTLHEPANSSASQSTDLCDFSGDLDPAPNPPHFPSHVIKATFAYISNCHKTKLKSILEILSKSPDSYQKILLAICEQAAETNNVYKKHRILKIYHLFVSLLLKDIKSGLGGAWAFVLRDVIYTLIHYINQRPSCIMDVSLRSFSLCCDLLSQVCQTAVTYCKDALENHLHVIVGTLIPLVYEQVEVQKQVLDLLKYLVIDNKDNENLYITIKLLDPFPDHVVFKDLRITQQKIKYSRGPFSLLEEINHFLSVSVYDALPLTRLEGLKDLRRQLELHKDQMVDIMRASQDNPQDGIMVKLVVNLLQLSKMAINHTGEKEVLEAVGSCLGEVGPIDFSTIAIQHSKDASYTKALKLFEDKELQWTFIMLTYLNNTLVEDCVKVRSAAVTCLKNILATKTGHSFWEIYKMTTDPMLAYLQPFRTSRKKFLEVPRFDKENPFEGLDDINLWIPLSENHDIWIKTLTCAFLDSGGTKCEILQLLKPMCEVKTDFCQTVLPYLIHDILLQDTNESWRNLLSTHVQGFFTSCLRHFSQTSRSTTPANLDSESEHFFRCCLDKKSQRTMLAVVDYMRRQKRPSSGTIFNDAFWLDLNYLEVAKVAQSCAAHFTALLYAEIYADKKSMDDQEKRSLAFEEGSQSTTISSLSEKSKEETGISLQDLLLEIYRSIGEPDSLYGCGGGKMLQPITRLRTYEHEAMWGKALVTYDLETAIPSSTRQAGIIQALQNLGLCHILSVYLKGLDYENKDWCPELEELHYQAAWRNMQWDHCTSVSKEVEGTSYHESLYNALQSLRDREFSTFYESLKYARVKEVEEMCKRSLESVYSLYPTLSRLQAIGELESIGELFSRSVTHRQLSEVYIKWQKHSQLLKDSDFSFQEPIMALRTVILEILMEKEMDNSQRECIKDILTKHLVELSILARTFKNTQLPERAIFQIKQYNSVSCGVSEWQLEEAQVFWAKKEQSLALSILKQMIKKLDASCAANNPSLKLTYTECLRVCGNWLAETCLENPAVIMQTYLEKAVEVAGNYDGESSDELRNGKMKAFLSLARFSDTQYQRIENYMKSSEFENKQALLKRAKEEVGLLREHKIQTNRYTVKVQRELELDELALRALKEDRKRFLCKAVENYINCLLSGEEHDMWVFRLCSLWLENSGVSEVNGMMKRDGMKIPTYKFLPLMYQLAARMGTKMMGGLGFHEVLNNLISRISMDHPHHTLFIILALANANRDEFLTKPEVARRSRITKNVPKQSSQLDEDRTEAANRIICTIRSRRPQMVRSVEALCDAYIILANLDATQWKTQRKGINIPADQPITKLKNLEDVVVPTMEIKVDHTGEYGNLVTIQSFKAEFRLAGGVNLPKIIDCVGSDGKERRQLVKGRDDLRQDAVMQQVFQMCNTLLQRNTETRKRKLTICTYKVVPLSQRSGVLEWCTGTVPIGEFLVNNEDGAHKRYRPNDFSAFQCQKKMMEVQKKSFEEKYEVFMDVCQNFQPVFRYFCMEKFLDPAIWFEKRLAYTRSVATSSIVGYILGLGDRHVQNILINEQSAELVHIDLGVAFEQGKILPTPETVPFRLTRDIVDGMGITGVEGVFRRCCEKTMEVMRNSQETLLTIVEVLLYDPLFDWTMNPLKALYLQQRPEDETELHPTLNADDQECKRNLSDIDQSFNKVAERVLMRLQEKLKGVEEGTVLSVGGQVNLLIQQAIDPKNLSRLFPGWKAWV

For the compound `CC1CN(CCNc2ccc3c(c2)Sc2cccc(-c4cc(N5CCOCC5)cc(=O)[nH]4)c2S3)CCO1` (centres unmarked) [Example 1-16-6, 6-(7-((2-(2-Methylmorpholino)ethyl)amino)thianthren-1-yl)-4-morpholinopyridin-2(1H)-one], the pIC50 at ATM was above 7.00. Moreover, the SER2 (concentration at which the radiation sensitivity-enhancement ratio reaches 2) in assay [1] (Homo sapiens) was in the range of 100 to 500 nM.

Turning to `Cc1ccc(CNc2ccc3c(c2)Cc2cccc(-c4cc(N5CCOCC5)cc(=O)[nH]4)c2O3)nc1` [Example 2-2-41, 6-(7-(((5-Methylpyridin-2-yl)methyl)amino)-9H-xanthen-4-yl)-4-morpholino pyridin-2(1H)-one], the pIC50 at ATM was 6.30 to 7.00. Also, in assay [1] (Homo sapiens, NCI-H460, 120 h), the SER2 (concentration at which the radiation sensitivity-enhancement ratio reaches 2) lay in the range of 100 to 500 nM.

With `O=c1cc(N2CCOCC2)cc(-c2cccc3c2Oc2ccc(NCc4cccc(Cl)n4)cc2S3)[nH]1` [Example 4-4-20, 6-(8-(((6-Chloropyridin-2-yl)methyl)amino)phenoxathiin-4-yl)-4-morpholino pyridin-2(1H)-one], the pIC50 at ATM is above 7.00. The SER2 (concentration at which the radiation sensitivity-enhancement ratio reaches 2) in assay [1] (Homo sapiens, NCI-H460, 120 h) lay in the range of 100 to 500 nM.

Consider `COc1ccc(CNc2ccc3c(c2)Cc2cccc(-c4cc(N5CCOCC5)cc(=O)[nH]4)c2O3)cn1` [Example 2-2-1, 6-(7-(((6-methoxypyridin-3-yl)methyl)amino)-9H-xanthen-4-yl)-4-morpholinopyridin-2(1H)-one], for which, at ATM, the pIC50 was above 7.00. For the same compound, the SER2 (concentration at which the radiation sensitivity-enhancement ratio reaches 2) in assay [1] (Homo sapiens, NCI-H460, 120 h) fell in the range of 100 to 500 nM.

For `N#Cc1ccnc(CNc2ccc3c(c2)Cc2cccc(-c4cc(N5CCOCC5)cc(=O)[nH]4)c2O3)c1` [Example 2-14-11, 2-(((5-(4-Morpholino-6-oxo-1,6-dihydropyridin-2-yl)-9H-xanthen-2-yl)amino)methyl) isonicotinonitrile], the pIC50 at ATM is above 7.00. The SER2 (concentration at which the radiation sensitivity-enhancement ratio reaches 2) in assay [1] (Homo sapiens, NCI-H460, 120 h) lay in the range of 100 to 500 nM.

In the case of `COc1ncc(CNc2ccc3c(c2)Cc2cccc(-c4cc(N5CCOCC5)cc(=O)[nH]4)c2O3)cc1F` [Example 2-2-18, 6-(7-(((5-Fluoro-6-methoxypyridin-3-yl)methyl)amino)-9H-xanthen-4-yl)-4-morpholino pyridin-2(1H)-one], the pIC50 on ATM was 6.30 to 7.00. Besides, the SER2 (concentration at which the radiation sensitivity-enhancement ratio reaches 2) in assay [1] (Homo sapiens, NCI-H460, 120 h) is 500 to 2000 nM.

As for `Cc1ccc(CNc2ccc3c(c2)Sc2cccc(-c4cc(N5CCOCC5)cc(=O)[nH]4)c2O3)cn1` [Example 4-8-23, 6-(8-(((6-Methylpyridin-3-yl)methyl)amino)phenoxathiin-4-yl)-4-morpholino pyridin-2(1H)-one], the pIC50 on ATM is above 7.00. In addition, the SER2 (concentration at which the radiation sensitivity-enhancement ratio reaches 2) in assay [1] (Homo sapiens, NCI-H460, 120 h) was in the range of 100 to 500 nM.

As for `COCC(Nc1ccc2c(c1)Sc1cccc(-c3cc(N4CCOCC4)cc(=O)[nH]3)c1S2)c1ccc(C)cn1` (centres unmarked) [Example 1-12-100, 6-(7-((2-Methoxy-1-(5-methylpyridin-2-yl)ethyl)amino)thianthren-1-yl)-4-morpholino pyridin-2(1H)-one], the pIC50 at ATM was above 7.00. For the same compound, the SER2 (concentration at which the radiation sensitivity-enhancement ratio reaches 2) in assay [1] (Homo sapiens, NCI-H460, 120 h) was below 100 nM.

For the compound `Cc1cnc(C(C)Nc2ccc3c(c2)Sc2cccc(-c4cc(N5CCOCC5)cc(=O)[nH]4)c2S3)nc1` (centres unmarked) [Example 1-12-70, 6-(7-((1-(5-Methylpyrimidin-2-yl)ethyl)amino)thianthren-1-yl)-4-morpholino pyridin-2(1H)-one], the pIC50 on ATM is above 7.00. In addition, the SER2 (concentration at which the radiation sensitivity-enhancement ratio reaches 2) in assay [1] (Homo sapiens, NCI-H460, 120 h) is below 100 nM.

As for `O=c1cc(N2CCOCC2)cc(-c2cccc3c2Sc2ccc(NCCN4C5CCC4COC5)cc2S3)[nH]1` [Example 1-10-5, 6-(7-((2-(3-oxa-8-azabicyclo[3.2.1]octan-8-yl)ethyl)amino)thianthren-1-yl)-4-morpholinopyridin-2(1H)-one], the pIC50 at ATM is above 7.00. The SER2 (concentration at which the radiation sensitivity-enhancement ratio reaches 2) in assay [1] (Homo sapiens, NCI-H460, 120 h) was in the range of 100 to 500 nM.

For the compound `Cc1ccc(C(CCCN(C)C)Nc2ccc3c(c2)Sc2cccc(-c4cc(N5CCOCC5)cc(=O)[nH]4)c2S3)nc1` (centres unmarked) [Example 1-50-7, 6-(7-((4-(Dimethylamino)-1-(5-methylpyridin-2-yl)butyl)amino)thianthren-1-yl)-4-morpholino pyridin-2(1H)-one], the pIC50 at ATM is above 7.00. In addition, in assay [1] (Homo sapiens, NCI-H460, 120 h), the SER2 (concentration at which the radiation sensitivity-enhancement ratio reaches 2) was in the range of 100 to 500 nM.

For the compound `Cc1cccc(C(C)Nc2ccc3c(c2)Cc2cccc(-c4cc(N5CCOCC5)cc(=O)[nH]4)c2O3)n1` (centres unmarked) [Example 2-14-18, 6-(7-((1-(6-Methylpyridin-2-yl)ethyl)amino)-9H-xanthen-4-yl)-4-morpholino pyridin-2(1H)-one], the pIC50 at ATM was 6.30 to 7.00. The SER2 (concentration at which the radiation sensitivity-enhancement ratio reaches 2) in assay [1] (Homo sapiens, NCI-H460, 120 h) is 100 to 500 nM.

As for `Cc1ccnc(C(C)Nc2ccc3c(c2)Sc2cccc(-c4cc(N5CCOCC5)cc(=O)[nH]4)c2S3)c1` (single isomer, unassigned) [Example 1-12-135-2, 6-(7-((1-(4-methylpyridin-2-yl)ethyl)amino)thianthren-1-yl)-4-morpholinopyridin-2(1H)-one], the pIC50 at ATM was above 7.00. Further, the SER2 (concentration at which the radiation sensitivity-enhancement ratio reaches 2) in assay [1] lay in the range of 100 to 500 nM.

Take `CC(Nc1ccc2c(c1)Cc1cccc(-c3cc(N4CCOCC4)cc(=O)[nH]3)c1O2)c1cc(Cl)ccn1` (centres unmarked) [Example 2-14-23, 6-(7-((1-(4-Chloropyridin-2-yl)ethyl)amino)-9H-xanthen-4-yl)-4-morpholino pyridin-2(1H)-one]: the pIC50 at ATM is above 7.00. The SER2 (concentration at which the radiation sensitivity-enhancement ratio reaches 2) in assay [1] (Homo sapiens, NCI-H460, 120 h) was in the range of 100 to 500 nM.

On to `O=c1cc(N2CCOCC2)cc(-c2cccc3c2Sc2ccc(NC(CF)CN4CCOCC4)cc2S3)[nH]1` (single isomer, unassigned) [Example 1-41-1-2, 6-(7-((1-fluoro-3-morpholinopropan-2-yl)amino)thianthren-1-yl)-4-morpholinopyridin-2(1H)-one], for which the pIC50 on ATM was above 7.00. For the same compound, the SER2 (concentration at which the radiation sensitivity-enhancement ratio reaches 2) in assay [1] (Homo sapiens, NCI-H460, 120 h) was below 100 nM.

Regarding `COc1cnc(C(C)Nc2ccc3c(c2)Cc2cccc(-c4cc(N5CCOCC5)cc(=O)[nH]4)c2O3)cn1` (centres unmarked) [Example 2-14-51, 6-(7-((1-(5-Methoxypyrazin-2-yl)ethyl)amino)-9H-xanthen-4-yl)-4-morpholino pyridin-2(1H)-one], the pIC50 at ATM was above 7.00. In addition, the SER2 (concentration at which the radiation sensitivity-enhancement ratio reaches 2) in assay [1] (Homo sapiens, NCI-H460, 120 h) was 100 to 500 nM.

For the compound `Cc1cccc(C(Nc2ccc3c(c2)Sc2cccc(-c4cc(N5CCOCC5)cc(=O)[nH]4)c2S3)C2CCCN(C)C2)n1` (single isomer, unassigned) [Example 1-22-4, 6-(7-(((1-Methylpiperidin-3-yl)(6-methylpyridin-2-yl)methyl)amino)thianthren-1-yl)-4-morpholino pyridin-2 (1H)-one], the pIC50 at ATM was above 7.00. Besides, in assay [1] (Homo sapiens, NCI-H460, 120 h), the SER2 (concentration at which the radiation sensitivity-enhancement ratio reaches 2) is below 100 nM.

Turning to `O=c1cc(N2CCOCC2)cc(-c2cccc3c2Oc2ccc(NCc4ccnc(Br)c4)cc2S3)[nH]1` [Example 4-4-16, 6-(8-(((2-Bromopyridin-4-yl)methyl)amino)phenoxathiin-4-yl)-4-morpholino pyridin-2(1H)-one], the pIC50 at ATM is above 7.00. The SER2 (concentration at which the radiation sensitivity-enhancement ratio reaches 2) in assay [1] (Homo sapiens, NCI-H460, 120 h) fell in the range of 100 to 500 nM.

Consider `COCCOCC(Nc1ccc2c(c1)Sc1cccc(-c3cc(N4CCOCC4)cc(=O)[nH]3)c1S2)c1ncc(C)cn1` (centres unmarked) [Example 1-12-98, 6-(7-((2-(2-Methoxyethoxy)-1-(5-methylpyrimidin-2-yl)ethyl)amino)thianthren-1-yl)-4-morpholino pyridin-2(1H)-one], for which the pIC50 at ATM was above 7.00. In addition, the SER2 (concentration at which the radiation sensitivity-enhancement ratio reaches 2) in assay [1] (Homo sapiens, NCI-H460, 120 h) is 100 to 500 nM.

These data come from US9586951B2 (FUJIFILM Corporation, priority 2013, dated 2017).
